In patent EP0061654A1, “Vincamine cyclamate, process for its preparation and medicaments containing it” (Heinrich Mack Nachf., priority 1981, dated 1982):
Where two headings read alike, the source gives them in different places.

Key:
[1] = in Wasser und anderen pharmazeutisch annehmbaren Lösungsmitteln; cited from earlier work
[2] = Solubility in pharmaceutically acceptable solvents; type: physicochemical; conditions: in Wasser, Glycerin/Ethanol-Gemischen oder Ethanol/Wasser-Gemischen

Row | Löslichkeit [2] | Compound | Löslichkeit [1]
1 |  | CCC12CCCN3CCc4c(n(c5ccccc45)C(O)(C(=O)OC)C1)C32 (centres unmarked) [Vincamin-Base, Vincamin] | praktisch unlöslich
2 | ausreichend löslich | Vincamin-cyclamat | 
